Measured values taken from article PMC6368365, “Didehydro-Cortistatin A Inhibits HIV-1 by Specifically Binding to the Unstructured Basic Region of Tat” (mBio, 2019).

Target: T1, intracellular Tat (Human immunodeficiency virus type 1 group M subtype B, UniProt P69697)
T1 construct: pTatC6H-1 (NIH AIDS Reagent Program) plasmid encoding C-terminal 6xHistidine Tat1-86 (HXB3, subtype B); made in house; host or cells: E. coli BL21 (plasmid pTatC6H-1, NIH AIDS Reagent Program)
Test: Steady state of recombinant Tat in HeLa-CD4-LTR-Luc cells (Western blot)
Assay type: cell-based, HIV-1
Conditions: 6 hours with compound, MG132 10 μM
Procedure: FIG 5 dCA stabilizes Tat structure. (A) Trp fluorescence assays. (Left) Schematic of the assay. (Center) DMSO, dCA (7.5× Tat concentration) or raltegravir (Ralt.; 7.5× Tat concentration) was incubated with Tat. The fluorescence of the Trp^11 of Tat protein was measured at the indicated wavelengths. Acrylamide (250 mM) was used as a quenching control of Tat fluorescence. (Right) Peak absorbance (λmax) versus increasing fold ratios of compounds to Tat protein. Data are representative of n = 3 independent experiments. (B) DARTS assays. Tat was incubated with DMSO or dCA, at increasing concentrations, in the presence of increasing concentrations of proteinase K (PK). […] Data are representative of n = 2 independent experiments. (C) Steady state of Tat in the presence of dCA in vivo. HeLa-CD4-LTR-Luc cells were incubated with recombinant Tat and then washed and incubated with the indicated compounds for 6 hours. […] (Left) Western blot representative of n = 4 independent experiments. MG132 was used as a positive control of Tat protection from degradation, and raltegravir was used as a negative control. (Right) Densitometry of the Tat band normalized to the actin band. Results represent the mean ± SEM from n = 4 independent experiments. Statistical significance was determined using one-way ANOVA with post hoc Tukey’s test. ns, not significant; ***, P < 0.0001; **, P < 0.001.
Next, we determined the half-life of recombinant Tat in HeLa-CD4-LTR-Luc cells in the presence of dCA (Fig. 5C). We incubated recombinant Tat with cells for 4 hours, and after several washes to remove extracellular Tat protein, we incubated cells with DMSO, dCA, or raltegravir for an additional 6 hours. Western blotting with anti-His antibody was performed to reveal intracellular Tat. […]
Half-life of Tat in vivo. […] Total protein concentration was assessed by Bradford assay and Tat protein in each condition determined by western blot with an anti-His antibody at 1:1500 dilution (Thermofisher). […]

T1 sequence (P69697 whole entry): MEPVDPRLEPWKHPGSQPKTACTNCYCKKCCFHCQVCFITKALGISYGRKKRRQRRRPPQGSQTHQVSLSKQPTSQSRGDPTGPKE

## CN(C)C1CC23CCC4(O2)C(=CCC2(C)C(c5ccc6ccncc6c5)=CCC24)C=C3C(O)C1O (centres unmarked) [dCA, didehydro-cortistatin A]
  percentage of remaining Tat: 40%

## Cc1nnc(C(=O)NC(C)(C)c2nc(C(=O)NCc3ccc(F)cc3)c(O)c(=O)n2C)o1 [raltegravir, reference compound]
  percentage of remaining Tat: 28%
